Reference: US10195313B2, “Method for forming hydrogel arrays using surfaces with differential wettability” (Wisconsin Alumni Research Foundation, priority 2014, dated 2019)
Non-standard residues stand in square brackets, D forms with d. No end group written: not given here.

Test system: endothelial cells (HUVECs, iPSC-ECs, hESC-ECs)
Test: endothelial cell tubule network formation (tubulogenesis) on patterned hydrogel array spots
Assay type: cell-based, human
Details: 0.067 mM to 0.267 of peptide incorporated into hydrogel arrays
Experimental: In this Example, a patterned hydrogel array was used to investigate endothelial cell tubule network formation (termed “tubulogenesis”) in vitro.
Specifically, patterned hydrogel arrays were composed of 8-arm, 20 kDa polyethylene glycol) functionalized with norbenene. As illustrated in the schematic shown in FIG. 13A, the patterned hydrogel arrays included hydrogel spots contained from 30 mg/mL to 60 mg/mL PEG, from 30-70% crosslinking with an MMP-degradable crosslinking peptide (KCGGPQGIWGQGCK, SEQ ID NO:35 or KCGGPQGIAGQGCK, SEQ ID NO:36) and 0.25 mM to 2 mM of a cell adhesive peptide (CRGDS, SEQ ID NO:2). Patterned hydrogel array spots were seeded with human umbilical vein endothelial cells (HUVECs), human induced pluripotent stem cell-derived endothelial cells (iPSC-ECs), and human embryonic stem cell-derived endothelial cells (hESC-ECs) in culture media containing standard growth medium for each cell type (Medium 199 and EGM-2 BULLETKIT™ (Lonza, Basel, Switzerland) for HUVECs, VASCULIFE® and VEGF LifeFactors for iPSC-ECs and hESC-ECs (Lifeline Cell Technology, Frederick, Md.)).
The hydrogel spots that contained between 36 mg/mL to 60 mg/mL PEG, 30-70% crosslinking with an MMP-degradable crosslinking peptide and 0.25 mM to 2 mM of the cell adhesive peptide supported of EC tubule formation (FIG. 13C). […]

CKDAPYEWNFDILdYdAdFdE (CKDAPYEWNFDIL[dY][dA][dF][dE]; not fully specified (residue 13))
persistence of tubule networks: enhanced
